Results published in patent publication US8216974B2, “Fluorine-containing organosulfur compound and pesticidal composition comprising the same” (Sumitomo Chemical Company, Limited, priority 2007, dated 2012).

How the values were obtained:
brown rice planthopper = assay: Test Example 6: foliar spray on rice plants versus comparative compound, brown rice planthopper; format: in vivo, Nilaparvata lugens; settings: 175 ppm, sprayed 20 ml/cup on rice plants; 30 first-instar larvae released; counted after 6 days at 25° C.
Method: In this Test Example, as a comparative compound, a compound disclosed in JP-A 2005-179321 (Compound No. 37 in Table 2) and represented by the formula:
[drawing 112] (hereinafter, referred to as the comparative compound (1)) was used.
Each formulation of the present compound (6) and the comparative compound (1) was obtained according to Formulation Example 15. The formulation was diluted so that the active ingredient concentration was 175 ppm to obtain a test solution.
At the same time, 50 g of culture soil, Bonsol No. 2 (manufactured by Sumitomo Chemical Co., Ltd.) was put into a polyethylene cup, and 10 to 15 seeds of rice were planted therein. The rice plants were grown until the second foliage leaf was developed, and then cut so as to have the same height of 5 cm. The test solution was sprayed on the rice plants in an amount of 20 ml/cup. After the test solution sprayed on the rice plants was dried, the rice plants were placed in a plastic cup for the purpose of preventing test worms from escaping. Thirty first-instar larvae of brown rice planthopper were released into the cup, and the cup was sealed with a lid. Then the cup was placed in a greenhouse at 25° C. for 6 days. Then, the number of parasitic brown rice planthoppers on the rice plants was examined.

Culex pipiens pallens = assay: Test Example 5: larvae in treated water, Culex pipiens pallens; format: in vivo; settings: 24 h, active ingredient concentration 3.5 ppm in water, 20 last-instar larvae, one day after, read-out: pest death rate
Method: (§1) A formulation of any one of the present compounds (1) to (10) obtained according to Formulation Example 15 was diluted with water so that the active ingredient concentration was 500 ppm to obtain a test solution.
To 100 mL of ion-exchanged water, 0.7 ml of the test solution was added (active ingredient concentration: 3.5 ppm). Into the solution, 20 last-instar larvae of Culex pipiens pallens were released. One day after, the number of surviving Culex pipiens pallens was examined and the death rate of the pest was calculated.

Blattalla germanica = assay: Test Example 4: filter paper with sucrose bait, Blattalla germanica; format: in vivo; settings: 500 ppm, 0.7 ml on filter paper; 2 male imagoes; after 6 days
Method: as §1
A filter paper having a diameter of 5.5 cm was spread on the bottom of a polyethylene cup having a diameter of 5.5 cm and 0.7 ml of the test solution was added dropwise onto the filter paper. As a bait 30 mg of sucrose was uniformly placed on the filter paper. Into the polyethylene cup, 2 male imagoes of Blattalla germanica were released and the cup was sealed with a lid. After 6 days, the number of surviving Blattalla germanica was examined and the death rate of the pest was calculated.

SMILES	number of the parasitic pests (brown rice planthopper)	pest or weed control at 3.5 ppm (Culex pipiens pallens)	pest death rate (Blattalla germanica)
NC(=O)C(SCCC(F)(F)F)c1ccc(Cl)cc1 (stereo not drawn) [present compound (6), 2-(4-chlorophenyl)-2-(3,3,3-trifluoropropylsulfanyl)acetamide]	≤ 3		
NC(=O)C(F)(c1ccc(C(F)(F)F)cc1)S(=O)(=O)CCC(F)(F)F (stereo not drawn) [present compound (5), 2-fluoro-2-(3,3,3-trifluoropropylsulfonyl)-2-(4-trifluoromethylphenyl)acetamide]		≥ 95%	100%
NC(=O)C(Cl)(Cc1cccc(C(F)(F)F)c1)S(=O)(=O)CCC(F)(F)F (stereo not drawn) [present compound (9), 2-chloro-3-(3-trifluoromethylphenyl)-2-(3.3.3-trifluoropropylsulfonyl)propaneamide]		≥ 10%	≥ 50%
NC(=O)C(Cl)(Cc1ccccc1C(F)(F)F)S(=O)(=O)CCC(F)(F)F (stereo not drawn) [present compound (10), 2-chloro-3-(2-trifluoromethylphenyl)-2-(3,3,3-trifluoropropylsulfonyl)propaneamide]		≥ 95%	
NC(=O)C(F)(c1ccc(Cl)c(F)c1)S(=O)(=O)CCC(F)(F)F (stereo not drawn) [present compound (3), 2-(4-chloro-3-fluorophenyl)-2-fluoro-2-(3,3,3-trifluoropropylsulfonyl)acetamide]		≥ 95%	100%
N#CC(SCCC(F)(F)F)c1ccc(Cl)cc1 (stereo not drawn) [comparative compound (1), reference compound]	≥ 21		
NC(=O)C(F)(c1cc(F)c(F)c(F)c1)S(=O)(=O)CCC(F)(F)F (stereo not drawn) [present compound (1), 2-fluoro-2-(3,3,3-trifluoropropylsulfonyl)-2-(3,4,5-trifluorophenyl)acetamide]		≥ 95%	100%
NC(=O)C(c1ccc(Cl)cc1)S(=O)(=O)CCC(F)(F)F (stereo not drawn) [present compound (7), 2-(4-chlorophenyl)-2-(3,3,3-trifluoropropylsulfonyl)acetamide]		≥ 10%	
NC(=O)C(F)(c1ccc(Cl)cc1)S(=O)(=O)CCC(F)(F)F (stereo not drawn) [present compound (4), 2-(4-chlorophenyl)-2-fluoro-2-(3,3,3-trifluoropropylsulfonyl)acetamide]		≥ 95%	100%
CC(C(N)=O)(c1cc(F)c(F)c(F)c1)S(=O)(=O)CCC(F)(F)F (stereo not drawn) [present compound (2), 2-(3,4,5-trifluorophenyl)-2-(3,3,3-trifluoropropylsulfonyl)propaneamide]			100%
